From patent US20190083420A1, “METHODS OF USING (2R, 6R)-HYDROXYN[…] (2S, 6S)-HYDROXYN[…] THE TREATMENT OF DEPRESSION, ANXIETY, ANHEDONIA, FATIGUE, SUICIDAL IDEATION, AND POST TRAUMATIC STRESS DISORDERS” (The Uinited States of America, as represented by the …, priority 2016, published 2019) come the findings set out here.

The subject of one data set is male CD-1 mice. Put plainly: Forced-swim test (FST). As to conditions: for antidepressant effect in the FST (immobility time): i.p. Type of data set: in vivo. The text has this: Male CD-1 mice (8-10 weeks old, Charles River Laboratories, Mass., USA) were housed in groups of four-five per cage with a constant 12-hour light/dark cycle (lights on/off at 07:00/19:00). Food and water were available ad libitum. Mice acclimatized to the new environment for seven days prior to the start of the experiments. For the whole-cell NMDA current electrophysiological recordings, male Sprague-Dawley rats (housed three per cage; Charles River, Wilmington, Mass.) were used. EPSC recording were done from rats at postnatal day 24-25. All experimental procedures were approved by the University of Maryland, Baltimore Animal Care and Use Committee and were conducted in full accordance with the National Institutes of Health Guide for the Care and Use of Laboratory Animals.
Mice were tested in the FST 1 hour and/or 24 hours post-injection. During the FST, mice were subjected to a 6-min swim session in clear Plexiglass cylinders (30 cm height×20 cm diameter) filled with 15 cm of water (23±1° C.). The FST was performed in normal light conditions (800 Lux). Sessions were recorded using a digital video-camera. Immobility time, defined as passive floating with no additional activity other than that necessary to keep the animal's head above water, was scored for the last 4 min of the 6-min test by a trained observer blind to the treatment.
All drugs were dissolved in 0.9% saline, and administered intraperitoneally (i.p.) in a volume of 7.5 ml/kg of body mass. Corticosterone (4-pregnen-11β, 21-diol-3, 20-dione 21-hemisuccinate; Steraloids, Newport, R.I., USA) was dissolved in tap water. For the electrophysiology recordings, test drugs were diluted in artificial cerebrospinal fluid (AC SF).

The test system of another data set is mice. Put plainly: Quantitative EEG, cortical oscillation power. Format: in vivo. As to conditions: for cortical gamma power: acute; for cortical gamma power / cortical alpha, beta, delta and theta oscillations: after i.p. 10 mg/kg. The protocol:
EEG experiments were performed according to Raver et al., (Neuropsychopharmacology, 38, 2338-2347 (2013)) with minor modifications. Mice were anesthetized with isoflurane and kept under anesthesia throughout the surgery. An F20-EET radio-telemetric transmitter (Data Sciences International, Minneapolis, Minn.) was implanted subcutaneously and its leads implanted over the dura above the frontal cortex (1.7 mm anterior to bregma) and the cerebellum (6.4 mm posterior to bregma). Animals recovered from surgery for 7 days before recordings.
Mice were singly housed and acclimated to the behavioral room for 24 hours prior to EEG recordings. EEGs were recorded using the Dataquest A.R.T. acquisition system (Data Sciences International) with frontal EEG recordings referenced to the cerebellum. Baseline EEG (10 min) recordings were followed by an i.p. injection of saline, ketamine (10 mg/kg) or (2R,6R)-HNK (10 mg/kg) and 40 min of post-injection recordings.
ECoGs were analyzed using custom-written MATLAB scripts (Version 2012a, Mathworks, Mass.) and the mtspecgramc routine in the Chronux Toolbox (http://chronux.org; Mitra and Bokil, 2008). Oscillation power in each bandwidth (δ=1-3 Hz; θ=4-7 Hz; α=8-12 Hz; β=13-29 Hz; γ=30-80 Hz) was computed in 10 min bins from spectrograms for each animal.

The subject of another data set is mTOR. Put plainly: Western blot of synaptoneurosomes, mTOR and phosphorylated mTOR. Format: in vivo, mice. The protocol: To purify synaptoneurosomes, mouse prefrontal cortex or hippocampus were dissected and homogenized in Syn-PER Reagent (ThermoFisher Scientific, Waltham, Mass., USA; Cat #87793) with 1× protease and phosphatase inhibitor cocktail (ThermoFisher Scientific, Waltham, Mass., USA; Cat #78440). The homogenate was centrifuged for 10 min at 1,200×g at 4° C. The supernatant was centrifuged at 15,000×g for 20 min. After centrifugation, the supernatant the pellet (synaptosomal fraction) was re-suspended and sonicated in N-PER Neuronal Protein Extraction Reagent (ThermoFisher Scientific, Waltham, Mass., USA; Cat #87792). For total homogenous tissue lysates, mouse prefrontal cortex or hippocampus were homogenized and sonicated in N-PER Neuronal Protein Extraction Reagent with 1× protease & phosphatase inhibitor cocktail) Protein concentration was determined via the BCA protein assay kit (ThermoFisher Scientific, Waltham, Mass., USA; Cat #23227).
For western blotting, equal amount of proteins (10-40 μg as optimal for each antibody) for each sample were loaded into NuPage 4-12% Bis-Tris gel for electrophoresis. Nitrocellulose membranes with transferred proteins were blocked with 5% milk in TBST (TBS+0.1% Tween-20) for 1 hour and kept with primary antibodies overnight at 4° C. The following primary antibodies were used: phospho-eEF2 (Cell Signaling Technology, Danvers, Mass., USA; Cat #2331), total eEF2 (Cell Signaling Technology, Danvers, Mass., USA; Cat #2332), phospho-mTOR (Cell Signaling Technology, Danvers, Mass., USA; Cat #2971), total mTOR (Cell Signaling Technology, Danvers, Mass., USA; Cat #2983), GluR1 (Cell Signaling Technology, Danvers, Mass., USA; […]), GluR2 (Cell Signaling Technology, Danvers, Mass., USA; Cat #13607), BDNF (Santa Cruz Biotechnology, Dallas, Tex., USA; Cat # sc-546), and GAPDH (Abcam, Cambridge, Mass., USA; Cat # ab8245). The next day, blots were washed three times in PBST and incubated with horseradish peroxidase conjugated anti-mouse or anti-rabbit secondary antibody (1:5000 to 1:10000) for 1 hour. After final three washes with TBST, bands were detected using enhanced chemiluminescence (ECL) with the Syngene Imaging System (G:Box ChemiXX9). After imaging, the blots then were incubated in the stripping buffer (ThermoFisher Scientific, Waltham, Mass., USA; Cat #46430) for 10-15 min at room temperature followed by three time washes with TBST. The stripped blots were washed in blocking solution for 1 hour and incubated with the primary antibody directed against total levels of the respective protein or GAPDH for loading control. Densitometric analysis of phospho- and total immunoreactive bands for each protein was conducted using Syngene's GenTools software Immunoreactivity was normalized to the saline treated control group for each protein.
In general terms: Immunoblotting shows a protein as a band on a membrane.

Where [1] appears, read: 1- and 24-hours post-injection, times not separated.
Setting [2] is: 24 hours post-injection (sustained).
Setting [3] is: hippocampus, 1- or 24-hours post-injection, 10 mg/kg.

“Also recorded” adds a separate entry of the source.

In the case of `CNC1(c2ccccc2Cl)CCCCC1=O` (racemic) [ketamine, (R,S)-ketamine, reference compound], the “antidepressant effect in the FST (immobility time)” value in the data set with male CD-1 mice (setting [1]) was “acute and long-lasting dose-dependent antidepressant effects”; in the data set with male CD-1 mice (1 hour post-injection (acute)), “antidepressant responses of both ketamine and MK-801 observed acutely”; with male CD-1 mice (setting [2]) it was “showed sustained effects following 24 hours”. Also, the “antidepressant potency in the FST, female versus male mice” value with male CD-1 mice (female mice compared to males) was “greater antidepressant potency of ketamine in female mice”. Also, the cortical gamma power result in the data set with mice (10 mg/kg) was “acutely increases cortical gamma power”. Besides, the “cortical alpha, beta, delta and theta oscillations” value with mice is given as “Neither (R,S)-KET, nor (2R,6R)-HNK altered”. Also, the “locomotor home-cage activity during EEG recording” value in the data set on mice (mouse, in vivo) is “increased locomotor home-cage activity”. Further, the “mTOR / phosphorylated mTOR synaptoneurosome levels” value was “not observed” in the data set with mTOR (setting [3]); “did not alter synaptoneurosome levels of mTOR or phosphorylated mTOR” in the data set with mTOR (hippocampus, 1- or 24-hours post-injection, 10 mg/kg, listed as (R,S)-ketamine); “not observed” in the data set on mTOR (prefrontal cortex); “did not alter” in the data set with mTOR (prefrontal cortex, listed as (R,S)-KET).
Take `N[C@@]1(c2ccccc2Cl)CCC[C@@H](O)C1=O` [(2R,6R)-HNK, (2R,6R)-2-amino-2-(2-chlorophenyl)-6-hydroxycyclohexanone]: the “antidepressant effect in the FST (immobility time)” value with male CD-1 mice (setting [1]) was “greater potency and longer-lasting antidepressant-like effects; also recorded: dose-dependent antidepressant-like effects; also recorded: dose-dependent antidepressant action”; with male CD-1 mice (setting [2]), “more potent antidepressant effects”. Moreover, the cortical gamma power entry in the data set on mice (10 mg/kg) is on record as “acutely increases cortical gamma power”. Besides, the “cortical alpha, beta, delta and theta oscillations” value in the data set with mice (10 mg/kg) was “without altering alpha, beta, delta or theta oscillations; also recorded: Neither (R,S)-KET, nor (2R,6R)-HNK altered”. Also, the “mTOR / phosphorylated mTOR synaptoneurosome levels” value in the data set on mTOR (setting [3]) is “not observed”; in the data set on mTOR (hippocampus, 1- or 24-hours post-injection, 10 mg/kg, listed as (2R,6R)-hydroxynorketamine), “did not alter synaptoneurosome levels of mTOR or phosphorylated mTOR”; with mTOR (prefrontal cortex), “not observed; also recorded: did not alter”.
